Results: publication PMC9596378, “Discovery and molecular basis of subtype-selective cyclophilin inhibitors” (Nature Chemical Biology, 2022)
“And” between values parts separate entries of the source, which are not always exact repeats. Identical values can stand only once. Like-named read-outs stand apart in the source and are kept apart here.

Key:
Test in all cases: Chymotrypsin coupled prolyl-isomerase assay
CypD = CypD (Homo sapiens, UniProt P30405); details: for CypD prolyl-isomerase assay raw dose-response value: Fig. 3b source data, replicates; for selectivity for CypD against the remaining six cyclophilins / selectivity for CypD over CypA / selectivity for CypD over CypA and PPIL1 / selectivity for CypD over CypE and CypB: prolyl-isomerase IC50
CypA E81S/K82R = molecular target: T1, CypA E81S/K82R (Homo sapiens, UniProt P62937, E81S/K82R); format: biochemical
T1 construct: Lane 12- SNA-CypA E81S/K82R (1-165);; His6 tag with TEV site (2BT vector); SNA remnant stays on the N-terminus (N, cleaved yes); made in house; host or cells: E. coli BL21(DE3)
Summary of the method: (§1)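 Steps: cyclophilin plus compound 5 min at 2–3 °C; α-chymotrypsin added, 5 min more; Suc-AAPF-AMC substrate in LiCl/trifluoroethanol injected and fluorescence followed 330 s. Finals: 5 nM enzyme, 25 µM chymotrypsin, 5 µM substrate, 0.25% DMSO.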

CypD K118A = molecular target: T2, CypD K118A (Homo sapiens, UniProt P30405, K118A); format: biochemical; details: prolyl-isomerase inhibition
T2 construct: made in house; host or cells: E. coli BL21(DE3)
Summary of the method: as §1

CypD K118E = molecular target: T3, CypD K118E (Homo sapiens, UniProt P30405, K118E); format: biochemical; details: prolyl-isomerase inhibition
T3 construct: made in house; host or cells: E. coli BL21(DE3)
Summary of the method: as §1

CypD R124A = molecular target: T4, CypD R124A (Homo sapiens, UniProt P30405, R124A); format: biochemical; details: mutant CypD R124A; read-out: Mutant Cyclophilin Prolyl Isomerase Inhibition IC50 Values, CypD R124A
T4 construct: made in house; host or cells: E. coli BL21(DE3)
Summary of the method: as §1

CypD R124K = molecular target: T5, CypD R124K (Homo sapiens, UniProt P30405, R124K); format: biochemical; details: mutant CypD R124K; read-out: Mutant Cyclophilin Prolyl Isomerase Inhibition IC50 Values, CypD R124K
T5 construct: made in house; host or cells: E. coli BL21(DE3)
Summary of the method: as §1

CypD S123E = molecular target: T6, CypD S123E (Homo sapiens, UniProt P30405, S123E); format: biochemical; details: prolyl-isomerase inhibition
T6 construct: made in house; host or cells: E. coli BL21(DE3)
Summary of the method: as §1

PPIL1 = molecular target: T7, PPIL1 (Homo sapiens, UniProt Q9Y3C6); format: biochemical; details: for PPIL1 prolyl-isomerase assay raw dose-response value: Fig. 3b source data, replicates
T7 construct: PPIL1 (UniProtKB Entry Q9Y3C6: residues 1–166); made in house; host or cells: E. coli BL21(DE3)
T7 sequence (Q9Y3C6 1-166): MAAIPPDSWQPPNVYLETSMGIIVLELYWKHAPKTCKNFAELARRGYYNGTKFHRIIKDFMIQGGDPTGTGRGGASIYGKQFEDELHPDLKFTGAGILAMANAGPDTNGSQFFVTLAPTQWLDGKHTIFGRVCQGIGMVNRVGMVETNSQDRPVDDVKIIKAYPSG
Protocol: Adapting a previously described protocol[51], with an Agilent Bravo Velocity 11 with a 384ST head, 90 µL assay buffer (25 mM HEPES pH 7.3, 100 mM NaCl, 0.01% Triton X-100) containing 5.28 nM cyclophilin was added into a flat, clear-bottom, black 384-well plate pre-chilled in a Corning CoolBox at 2–3 °C. Five microliters of compound pre-dissolved in 5% DMSO/assay buffer was then added to appropriate wells and incubated at 2–3 °C for 5 min. Five microliters of 0.5 mM α-chymotrypsin from bovine pancreas (Type II, lyophilized powder, Millipore-Sigma) in 20% 1 mM HCl/Assay Buffer was then added to each well and incubated at 2–3 °C for 5 min. […] Using the internal liquid handling system of the FLIPR, 1 µL 0.5 mM Suc-AAPF-AMC (Chymotrypsin Substrate II, Millipore-Sigma) dissolved in 0.55 M LiCl/2,2,2-trifluoroethanol was added to each well, which was then mixed for 5 s, followed by immediate fluorescence measurements every 1 s for 330 s using a 360–380 nm excitation LED module and a 400–460 nm emission filter. Final concentrations of the plate include 5 nM cyclophilin, 0.25% DMSO, 25 µM α-chymotrypsin, 5 µM Suc-AAPF-AMC. Raw fluorescence data was analyzed by non-linear regression analysis with Prism v.9 by fitting one-phase association curves to each well. Analyses were halted after the calculated maximum fluorescent value owing to observed fluorescent bleaching during the sustained fluorescent plateau. Rate constants calculated for each well (s^−1) were then normalized to substrate only (no prolyl-isomerase) and enzyme + substrate only controls. IC50 values were calculated as the value at which 50% inhibition was achieved on the non-linear regression fitted curve of each compound.

PPWD1 = molecular target: T8, PPWD1 (Homo sapiens, UniProt Q96BP3); format: biochemical; details: for PPWD1 prolyl-isomerase assay raw dose-response value: Fig. 3b source data, replicates
T8 construct: PPWD1 (UniProtKB Entry Q96BP3: residues 473–646); host or cells: E. coli BL21(DE3)
T8 sequence (Q96BP3 473-646): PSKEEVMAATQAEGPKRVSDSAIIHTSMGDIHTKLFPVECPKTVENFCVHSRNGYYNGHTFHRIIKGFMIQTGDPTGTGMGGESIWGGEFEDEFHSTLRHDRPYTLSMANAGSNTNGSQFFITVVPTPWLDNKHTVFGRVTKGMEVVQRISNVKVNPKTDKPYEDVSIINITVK
Protocol: Five microliters of compound pre-dissolved in 5% DMSO/assay buffer was then added to appropriate wells and incubated at 2–3 °C for 5 min. Five microliters of 0.5 mM α-chymotrypsin from bovine pancreas (Type II, lyophilized powder, Millipore-Sigma) in 20% 1 mM HCl/Assay Buffer was then added to each well and incubated at 2–3 °C for 5 min. The plate was then quickly transferred to a FLIPR Tetra High-Throughput Cellular Screening System (Molecular Devices). Using the internal liquid handling system of the FLIPR, 1 µL 0.5 mM Suc-AAPF-AMC (Chymotrypsin Substrate II, Millipore-Sigma) dissolved in 0.55 M LiCl/2,2,2-trifluoroethanol was added to each well, which was then mixed for 5 s, followed by immediate fluorescence measurements every 1 s for 330 s using a 360–380 nm excitation LED module and a 400–460 nm emission filter. […] Raw fluorescence data was analyzed by non-linear regression analysis with Prism v.9 by fitting one-phase association curves to each well. Analyses were halted after the calculated maximum fluorescent value owing to observed fluorescent bleaching during the sustained fluorescent plateau. Rate constants calculated for each well (s^−1) were then normalized to substrate only (no prolyl-isomerase) and enzyme + substrate only controls.

[1] = wild-type PPIL1, read-out: Wild-Type Cyclophilin Prolyl Isomerase Inhibition IC50 Values, PPIL1
[2] = prolyl-isomerase inhibition, 5 nM cyclophilin, read-out: IC50 PPWD1
[3] = wild-type PPWD1, read-out: Wild-Type Cyclophilin Prolyl Isomerase Inhibition IC50 Values, PPWD1
[4] = IC50 CypD, Independent replicate 1, mean±SEM of 3 technical replicates
[5] = IC50 CypD, Independent replicate 2
[6] = IC50 CypD, Independent replicate 3
[7] = IC50 CypD, Independent replicate 4
[8] = prolyl-isomerase inhibition, read-out: IC50 CypA E81S/K82R
[9] = Independent replicate 1, read-out: IC50 PPIL1
[10] = Independent replicate 2, read-out: IC50 PPIL1
[11] = Independent replicate 3, read-out: IC50 PPIL1
[12] = Independent replicate 4, read-out: IC50 PPIL1
[13] = prolyl-isomerase inhibition, 5 nM cyclophilin, read-out: IC50 PPIL1
[14] = Independent replicate 1, read-out: IC50 PPWD1
[15] = Independent replicate 2, read-out: IC50 PPWD1
[16] = Independent replicate 3, read-out: IC50 PPWD1
[17] = Independent replicate 4, read-out: IC50 PPWD1

T3 sequence (P30405 45-207 K118E): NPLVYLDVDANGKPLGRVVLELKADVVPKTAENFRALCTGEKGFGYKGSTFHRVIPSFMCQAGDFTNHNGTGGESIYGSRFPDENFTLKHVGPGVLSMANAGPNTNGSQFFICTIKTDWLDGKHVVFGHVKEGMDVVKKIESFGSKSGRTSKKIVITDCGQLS
Sequence of CypD (P30405 45-207): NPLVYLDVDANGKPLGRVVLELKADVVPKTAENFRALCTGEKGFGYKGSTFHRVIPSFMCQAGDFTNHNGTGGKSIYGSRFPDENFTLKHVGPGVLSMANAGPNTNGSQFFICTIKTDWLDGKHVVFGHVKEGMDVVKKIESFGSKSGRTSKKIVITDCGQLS
T2 sequence (P30405 45-207 K118A): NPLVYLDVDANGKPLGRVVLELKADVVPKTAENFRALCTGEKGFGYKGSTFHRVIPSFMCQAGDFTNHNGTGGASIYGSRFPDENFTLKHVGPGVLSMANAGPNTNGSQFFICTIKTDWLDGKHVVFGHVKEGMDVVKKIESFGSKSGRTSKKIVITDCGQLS
T4 sequence (P30405 45-207 R124A): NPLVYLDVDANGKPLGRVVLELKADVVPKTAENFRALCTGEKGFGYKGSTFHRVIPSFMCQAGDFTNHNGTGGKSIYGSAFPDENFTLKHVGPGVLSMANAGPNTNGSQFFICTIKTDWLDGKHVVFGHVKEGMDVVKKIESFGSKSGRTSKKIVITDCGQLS
T5 sequence (P30405 45-207 R124K): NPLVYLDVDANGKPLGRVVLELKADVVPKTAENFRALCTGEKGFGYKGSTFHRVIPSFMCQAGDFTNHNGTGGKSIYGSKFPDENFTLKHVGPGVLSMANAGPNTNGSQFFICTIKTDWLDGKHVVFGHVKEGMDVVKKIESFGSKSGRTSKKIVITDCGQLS
T1 sequence (P62937 whole entry E81S/K82R): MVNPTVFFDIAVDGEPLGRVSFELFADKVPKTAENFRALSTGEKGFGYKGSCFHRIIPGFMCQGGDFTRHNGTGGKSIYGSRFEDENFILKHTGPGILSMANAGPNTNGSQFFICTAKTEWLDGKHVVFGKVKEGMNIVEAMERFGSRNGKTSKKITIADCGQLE
T6 sequence (P30405 45-207 S123E): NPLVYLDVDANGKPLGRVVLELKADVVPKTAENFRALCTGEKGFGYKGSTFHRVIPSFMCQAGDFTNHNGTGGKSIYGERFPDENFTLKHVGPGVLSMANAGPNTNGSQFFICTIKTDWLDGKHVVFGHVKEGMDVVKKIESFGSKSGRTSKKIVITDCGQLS

NCCOCCNC(=O)[C@@H]1CCNC(=O)/C=C/C(=O)N2CCC[C@](Cc3ccccc3)(C2)C(=O)N[C@@H](Cc2ccc(-c3ccc(C#CC(=O)O)cc3)cc2)C(=O)NCc2ccccc2CC(=O)N1 [Compound B25]
IC50 (CypD): 3 nM | CypD prolyl-isomerase assay raw dose-response value (CypD; Dose 0.000457247 µM): 0.0674 and 0.06729 and 0.07005 | CypD prolyl-isomerase assay raw dose-response value (CypD; Dose 0.00137174 µM): 0.06909 and 0.05826 and 0.0465 | CypD prolyl-isomerase assay raw dose-response value (CypD; Dose 0.00411523 µM): 0.04183 and 0.04697 and 0.03133 | CypD prolyl-isomerase assay raw dose-response value (CypD; Dose 0.0123457 µM): 0.02432 and 0.02391 and 0.02276 | CypD prolyl-isomerase assay raw dose-response value (CypD; Dose 0.037037 µM): 0.01562 and 0.01516 and 0.01481 | CypD prolyl-isomerase assay raw dose-response value (CypD; Dose 0.111111 µM): 0.01259 and 0.0133 and 0.01227 | CypD prolyl-isomerase assay raw dose-response value (CypD; Dose 0.333333 µM): 0.01238 and 0.01154 and 0.0111 | CypD prolyl-isomerase assay raw dose-response value (CypD; Dose 1 µM): 0.01437 and 0.01145 and 0.01083 | IC50 (CypA E81S/K82R; mutant CypA E81S/K82R, read-out: Mutant Cyclophilin Prolyl Isomerase Inhibition IC50 Values, CypA E81S/K82R): 6.2 nM | IC50 (CypD K118A): 19 nM | IC50 (CypD K118E): 60 nM | IC50 (CypD R124A): 2 nM | IC50 (CypD R124K): 2.9 nM | IC50 (CypD S123E): 8 nM | PPIL1 prolyl-isomerase assay raw dose-response value (PPIL1; Dose 0.0228624 µM): 0.0374 and 0.04134 and 0.04686 | PPIL1 prolyl-isomerase assay raw dose-response value (PPIL1; Dose 0.0685871 µM): 0.02743 and 0.02671 and 0.02724 | PPIL1 prolyl-isomerase assay raw dose-response value (PPIL1; Dose 0.205761 µM): 0.01848 and 0.01869 | PPIL1 prolyl-isomerase assay raw dose-response value (PPIL1; Dose 0.617284 µM): 0.01432 and 0.01378 and 0.01288 | PPIL1 prolyl-isomerase assay raw dose-response value (PPIL1; Dose 1.85185 µM): 0.01263 and 0.01274 and 0.01211 | PPIL1 prolyl-isomerase assay raw dose-response value (PPIL1; Dose 5.55556 µM): 0.01183 and 0.01164 and 0.01059 | PPIL1 prolyl-isomerase assay raw dose-response value (PPIL1; Dose 16.6667 µM): 0.01229 and 0.01158 and 0.01139 | PPIL1 prolyl-isomerase assay raw dose-response value (PPIL1; Dose 50 µM): 0.01421 and 0.01181 and 0.01108 | IC50 (PPIL1; [1]): 20 nM | PPWD1 prolyl-isomerase assay raw dose-response value (PPWD1; Dose 0.0228624 µM): 0.03895 and 0.0361 and 0.043 | PPWD1 prolyl-isomerase assay raw dose-response value (PPWD1; Dose 0.0685871 µM): 0.04294 and 0.03257 and 0.04643 | PPWD1 prolyl-isomerase assay raw dose-response value (PPWD1; Dose 0.205761 µM): 0.03704 and 0.0362 | PPWD1 prolyl-isomerase assay raw dose-response value (PPWD1; Dose 0.617284 µM): 0.03731 (2×) and 0.0336 | PPWD1 prolyl-isomerase assay raw dose-response value (PPWD1; Dose 1.85185 µM): 0.03718 and 0.0343 and 0.0411 | PPWD1 prolyl-isomerase assay raw dose-response value (PPWD1; Dose 5.55556 µM): 0.03268 and 0.0311 and 0.02851 | PPWD1 prolyl-isomerase assay raw dose-response value (PPWD1; Dose 16.6667 µM): 0.02501 and 0.02576 and 0.02254 | PPWD1 prolyl-isomerase assay raw dose-response value (PPWD1; Dose 50 µM): 0.01888 and 0.01599 and 0.01588 | IC50 (PPWD1; [2]): ~10000 nM | IC50 (PPWD1; [3]): 10000 nM

NCCOCCNC(=O)[C@@H]1CCNC(=O)/C=C/C(=O)N2CCC[C@](Cc3ccccc3)(C2)C(=O)N[C@@H](Cc2ccc(-c3ccc(CC(C(=O)O)C(=O)O)cc3)cc2)C(=O)NCc2ccccc2CC(=O)N1 [Compound B52]
IC50 (CypD): 10 ± 4 nM | IC50 (CypD; [4]): 10 ± 2 nM | IC50 (CypD; [5]): 11 ± 4 nM | IC50 (CypD; [6]): 11 ± 5 nM | IC50 (CypD; [7]): 10 ± 5 nM | IC50 (CypD; IC50 CypD, prolyl-isomerase inhibition): 10 nM | IC50 (CypD; Wild-Type Cyclophilin Prolyl Isomerase Inhibition IC50 Values, CypD, wild-type CypD): 10 nM | selectivity for CypD against the remaining six cyclophilins (CypD): > 900 fold | selectivity for CypD over CypA (CypD): > 100 fold and 100 fold | selectivity for CypD over CypA and PPIL1 (CypD): 60- to 900 fold | selectivity for CypD over CypE and CypB (CypD): 15- to 30 fold | IC50 (CypD; read-out: IC50 CypD, prolyl-isomerase inhibition, 5 nM cyclophilin, Suc-AAPF-AMC, mean±s.e.m. of 3 technical replicates (B52, B53, C3A wild-type: mean±s.d. of 4 independent replicates)): 10 nM | IC50 (CypA E81S/K82R; [8]): 27 nM | IC50 (CypD K118A): 73 nM | IC50 (CypD K118E): 300 nM | IC50 (CypD R124A): 17 nM | IC50 (CypD R124K): 20 nM | IC50 (CypD S123E): 240 nM | IC50 (PPIL1; [9]): 5000 ± 2000 nM | IC50 (PPIL1; [10]): 9000 ± 3000 nM | IC50 (PPIL1; [11]): 6000 ± 2000 nM | IC50 (PPIL1; [12]): 5000 ± 2000 nM | IC50 (PPIL1; [13]): 6000 ± 2000 nM | IC50 (PPIL1; prolyl-isomerase inhibition, read-out: IC50 PPIL1): 6000 nM | IC50 (PPIL1; [1]): 6000 nM | IC50 (PPWD1; [14]): > 100000 nM | IC50 (PPWD1; [15]): > 100000 nM | IC50 (PPWD1; [16]): > 100000 nM | IC50 (PPWD1; [17]): > 100000 nM | IC50 (PPWD1; [2]): > 100000 nM | IC50 (PPWD1; prolyl-isomerase inhibition, read-out: IC50 PPWD1): > 100000 nM | IC50 (PPWD1; [3]): > 100000 nM

NCCOCCNC(=O)[C@@H]1CCNC(=O)/C=C/C(=O)N2CCC[C@](Cc3ccccc3)(C2)C(=O)N[C@@H](Cc2ccc(-c3ccc(C(CC(=O)O)CC(=O)O)cc3)cc2)C(=O)NCc2ccccc2CC(=O)N1 [Compound B53]
IC50 (CypD): 57 nM | IC50 (CypD; [4]): 40 ± 10 nM | IC50 (CypD; [5]): 50 ± 20 nM | IC50 (CypD; [6]): 60 ± 20 nM | IC50 (CypD; [7]): 60 ± 30 nM | selectivity for CypD against the remaining six cyclophilins (CypD): > 900 fold | selectivity for CypD over CypA (CypD): > 100 fold and 100 fold | selectivity for CypD over CypA and PPIL1 (CypD): 60- to 900 fold | selectivity for CypD over CypE and CypB (CypD): 15- to 30 fold | IC50 (CypA E81S/K82R; [8]): 180 nM | IC50 (CypD K118A): 900 nM | IC50 (CypD K118E): 4000 nM | IC50 (CypD R124A): 32 nM | IC50 (CypD R124K): 100 nM | IC50 (CypD S123E): 800 nM | IC50 (PPIL1; [9]): ~30000 nM | IC50 (PPIL1; [10]): > 50000 nM | IC50 (PPIL1; [11]): > 50000 nM | IC50 (PPIL1; [12]): > 50000 nM | IC50 (PPIL1; [13]): > 50000 nM | IC50 (PPIL1; [1]): > 50000 nM | IC50 (PPWD1; [14]): > 50000 nM | IC50 (PPWD1; [15]): > 50000 nM | IC50 (PPWD1; [16]): > 50000 nM | IC50 (PPWD1; [17]): > 50000 nM | IC50 (PPWD1; [2]): > 50000 nM | IC50 (PPWD1; [3]): > 50000 nM
